From US6566541B2, “Type 2 methionine aminopeptidase (MetAP2) inhibitors and uses thereof” (Massachusetts Institute of Technology, priority 1997, dated 2003)
Where two headings read alike, the source gives them in different places.

How the values were obtained:
[1] = system: bovine aortic endothelial cell (BAEC); assay: bovine aortic endothelial cell (BAEC) proliferation assay (MTT); format: cell-based; conditions: for IC50: Bos taurus; for activity in the BAEC proliferation assay: result in words
Experimental: BAEC were trypsinized and plated into 96-well plates at a density of 2000 cells per well. After the cells adhered to the plate, compounds dissolved in ethanol (final concentration of 0.5%) were added to the cultures.
(§1) Synthesis was according to the procedures as described in Mauri et al., Chem. Pharm. Bull. […] Bull.

recombinant human MetAP2 [2] = biological target: T1, recombinant human MetAP2 (Homo sapiens, UniProt P50579); assay: methionine aminopeptidase activity of MetAP2 (Met-Gly-Met-Met substrate); format: biochemical
T1 construct: made in house; host or cells: insect cells
Experimental: Recombinant human MetAP2 was expressed and purified from insect cells as described in Li and Chang, Biochem. Biophys. Res. Commun. […] Released methionine was quantified at different time points (0, 2, 3 and 5 min) using the method of Zuo et al., Mol. Gen.
as §1

[3] = system: Wild-type [YPH500] yeast cells; assay: yeast growth on YEPD plates containing drug, wild type; format: cell-based, Saccharomyces cerevisiae; conditions: 50 nM drug, YEPD plate, 30° C., four days
From the text: (§2) […]. […] […].

[4] = system: map1 null [XLP101 (map1::HIS3)] yeast cells; assay: yeast growth on YEPD plates containing drug, map1 null; format: cell-based, Saccharomyces cerevisiae; conditions: 50 nM drug, YEPD plate, 30° C., four days
From the text: as §2

recombinant yeast MetAP1 = biological target: T2, recombinant yeast MetAP1 (Saccharomyces cerevisiae, UniProt Q01662); assay: MetAP activity of recombinant yeast MetAP1 in vitro; format: biochemical; conditions: concentrations up to 10 μM
T2 sequence (Q01662 1-387): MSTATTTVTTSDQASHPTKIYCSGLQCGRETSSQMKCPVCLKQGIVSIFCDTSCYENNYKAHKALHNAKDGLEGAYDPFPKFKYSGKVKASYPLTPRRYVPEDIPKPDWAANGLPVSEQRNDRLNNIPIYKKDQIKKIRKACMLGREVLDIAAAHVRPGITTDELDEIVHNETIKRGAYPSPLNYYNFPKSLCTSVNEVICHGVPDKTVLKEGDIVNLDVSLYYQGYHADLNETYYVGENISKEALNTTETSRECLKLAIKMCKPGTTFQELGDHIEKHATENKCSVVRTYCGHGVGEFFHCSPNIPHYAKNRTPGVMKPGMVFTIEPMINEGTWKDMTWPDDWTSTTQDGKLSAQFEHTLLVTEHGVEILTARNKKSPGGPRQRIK

recombinant yeast MetAP2 = recombinant yeast MetAP2 (Saccharomyces cerevisiae, UniProt P38174); assay: MetAP activity of recombinant yeast MetAP2 in vitro; format: biochemical; conditions: concentrations as low as 5 nM
recombinant human MetAP2 [5] = biological target: T1, recombinant human MetAP2; assay: MetAP2 inhibition of eIF-2α phosphorylation by heme-regulated inhibitor kinase (HRI); format: biochemical; conditions: compared with unbound MetAP2
Experimental: Modified or control MetAP2 (0.6 μg) was incubated with purified eIF-2 (0.3 μg) in 20 mM Tris·HCl, pH 7.8, 40 mM KCl, and 2 mM MgAC2 on ice for 1 hr. Recombinant HRI (0.25 ng) and [γ-^32P]ATP were then added to a final total volume of 20 μl and the reaction mixture was further incubated at 37° C. for 10 min. The labeled eIF-2α was analyzed by 10% SDS-PAGE followed by autoradiography. The phosphorylated bands were quantified by NIH Image 1.60 software.

[6] = system: map2 null [XLP201 (map2::URA3)] yeast cells; conditions: 50 nM drug, YEPD plate, 30° C., four days
Experimental: To further test the specificity of these drugs, both wild type and mutant yeast strains lacking either MetAP1 (map1) or MetAP2 (map2) were plated onto media containing the two drugs. […] The plates were incubated at 30° C. for four days.

67 kD (p67) = biological target: T3, 67 kD (p67) (Bos taurus, UniProt Q3ZC89); assay: competition of ovalicin photoaffinity labeling in BAEC extracts; format: binding, bovine; conditions: BAEC extract preincubated with excess cold competitor
T3 construct: endogenous in cells; host or cells: BAEC (bovine aortic endothelial cells) extract
Experimental: Photoaffinity labeling was performed as follows. […] Reaction mixtures were incubated on ice in the dark for 1 hr and then irradiated at 254 nm (0.2 J/cm^2). Reactions were quenched by adding 1.5 μl β-mercaptoethanol followed by 7.5 μl 5×SDS sample buffer and heated in a boiling water bath for 3 min. Samples were analyzed by 10% SDS/PAGE, followed by autoradiography.

recombinant human MetAP2 [7] = biological target: T1, recombinant human MetAP2; assay: covalent binding to MetAP2 (biotin conjugates, denaturing SDS-PAGE, streptavidin-HRP); conditions: drug-protein complex maintained under denaturing conditions
Experimental: The protein samples were boiled in a sample buffer containing SDS and β-mercaptoethanol, subjected to SDS-PAGE, and transferred to nitrocellulose.
100 ng of recombinant human MetAP2 was incubated in 40 μl binding buffer (20 mM Tris·HCl, pH 7.1, 100 mM KCl, 0.2% Triton X-100) in the presence or absence of competitors for 1 hr followed by incubation with the biotin conjugates (1 μM) at 4° C. for 2 hr. 40 μl of 2×SDS sample buffer containing β-mercaptoethanol was added and the samples were boiled for 10 min. Following SDS-PAGE, the samples were transferred to nitrocellulose at 50V for 1 hr at 4° C. and blocked overnight in blocking solution (5% BSA, 2% Nonfat milk, 0.02% NaN3 in PBS). The membrane was incubated with rabbit anti-human MetAP2 antibodies (1:500) for 1 hr at room temperature, followed by incubation with sheep anti-rabbit IgG-HRP or incubated with streptavidin-HRP (1:1000) for 1 hr and visualized with the chemilluminescent ECL kit (Amersham, Arlington Heights, Ill.), as per manufacturer's instructions.

p67 (MetAP2) = p67 (MetAP2) (Mus musculus, UniProt O08663)
[8] = BAEC proliferation, average of at least three experiments, read-out: Proliferation IC50
[9] = MetAP2 enzymatic activity, average of at least three experiments, read-out: MetAP2 IC50
[10] = BAEC, read-out: Proliferation IC50 (nM)
[11] = MetAP2 IC50 (nM), MetAP2 enzymatic activity, average of at least three experiments

Chain of p67 (MetAP2) (O08663 whole entry): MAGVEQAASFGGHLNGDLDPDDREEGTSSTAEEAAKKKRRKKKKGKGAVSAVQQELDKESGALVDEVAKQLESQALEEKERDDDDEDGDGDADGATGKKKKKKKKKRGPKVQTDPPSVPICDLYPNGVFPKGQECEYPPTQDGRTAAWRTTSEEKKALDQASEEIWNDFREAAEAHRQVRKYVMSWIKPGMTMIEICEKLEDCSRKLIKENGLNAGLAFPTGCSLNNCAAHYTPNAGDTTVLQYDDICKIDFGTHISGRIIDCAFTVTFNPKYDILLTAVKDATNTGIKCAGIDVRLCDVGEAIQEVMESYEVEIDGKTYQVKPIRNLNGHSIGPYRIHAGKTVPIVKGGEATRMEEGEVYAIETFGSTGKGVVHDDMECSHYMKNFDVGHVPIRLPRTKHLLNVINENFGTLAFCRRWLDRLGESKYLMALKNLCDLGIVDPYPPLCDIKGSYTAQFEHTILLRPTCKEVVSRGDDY
T1 sequence (P50579 whole entry): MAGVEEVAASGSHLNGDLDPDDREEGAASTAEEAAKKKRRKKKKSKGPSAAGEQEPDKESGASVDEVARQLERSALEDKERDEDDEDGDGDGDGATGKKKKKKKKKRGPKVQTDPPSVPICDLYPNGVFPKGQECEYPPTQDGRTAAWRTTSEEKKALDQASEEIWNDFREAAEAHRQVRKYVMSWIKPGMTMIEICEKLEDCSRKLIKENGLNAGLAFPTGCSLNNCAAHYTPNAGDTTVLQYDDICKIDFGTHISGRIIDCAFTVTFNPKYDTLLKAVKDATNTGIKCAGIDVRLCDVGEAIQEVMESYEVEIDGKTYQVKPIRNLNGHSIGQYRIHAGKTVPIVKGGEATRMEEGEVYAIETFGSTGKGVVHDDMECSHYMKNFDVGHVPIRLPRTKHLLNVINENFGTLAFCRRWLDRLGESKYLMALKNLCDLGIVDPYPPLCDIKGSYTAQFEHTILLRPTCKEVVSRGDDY
Chain of recombinant yeast MetAP2 (P38174 whole entry): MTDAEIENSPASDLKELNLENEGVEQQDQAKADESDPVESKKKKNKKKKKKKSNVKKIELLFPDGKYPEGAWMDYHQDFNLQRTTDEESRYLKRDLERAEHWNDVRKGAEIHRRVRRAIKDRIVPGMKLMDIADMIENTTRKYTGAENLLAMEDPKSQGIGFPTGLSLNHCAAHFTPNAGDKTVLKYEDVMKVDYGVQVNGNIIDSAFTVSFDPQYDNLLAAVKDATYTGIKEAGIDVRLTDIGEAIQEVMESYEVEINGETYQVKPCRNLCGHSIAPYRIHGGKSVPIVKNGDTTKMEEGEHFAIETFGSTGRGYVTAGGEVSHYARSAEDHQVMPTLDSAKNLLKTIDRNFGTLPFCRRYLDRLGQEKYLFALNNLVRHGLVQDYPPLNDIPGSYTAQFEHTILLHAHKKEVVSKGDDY
T3 sequence (Q3ZC89 whole entry): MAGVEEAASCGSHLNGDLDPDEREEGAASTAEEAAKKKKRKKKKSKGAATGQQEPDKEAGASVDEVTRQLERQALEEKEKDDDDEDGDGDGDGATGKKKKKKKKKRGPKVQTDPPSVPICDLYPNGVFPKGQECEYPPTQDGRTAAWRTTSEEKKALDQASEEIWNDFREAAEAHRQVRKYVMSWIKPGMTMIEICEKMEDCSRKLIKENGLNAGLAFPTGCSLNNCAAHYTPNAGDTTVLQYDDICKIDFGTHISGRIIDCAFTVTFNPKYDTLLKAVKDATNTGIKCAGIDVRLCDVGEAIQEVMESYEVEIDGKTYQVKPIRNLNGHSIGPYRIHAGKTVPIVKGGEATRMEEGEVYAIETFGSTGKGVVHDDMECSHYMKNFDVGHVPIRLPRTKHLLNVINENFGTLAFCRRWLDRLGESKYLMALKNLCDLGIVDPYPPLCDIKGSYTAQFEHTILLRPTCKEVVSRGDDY

Work on `COC1C(O)CCC(O)(CSC)C1(O)C1(C)OC1CC=C(C)C` [FOS-201, (1R,2S,3R,4R)-1-Methylthiomethylene-2-[(1′S,2′S)-1′,2′-epoxy-1′,5′-dimethyl-4′hexenyl]-3-methoxycyclohexane-1,2,4-triol] yielded an IC50 [1, 8] of 56 ± 34 nM and an IC50 (recombinant human MetAP2 [2]; [9]) of 45 ± 12 nM.
With `COC1C(OC(=O)NCCCCCCCCNC(=O)CCCCC2SCC3NC(=O)NC32)CCC2(CO2)C1C1(C)OC1CC=C(C)C` (centres unmarked) [biotin-fumagillin] the “activity in the BAEC proliferation assay” value [1] was “retain significant activity”.
`CO[C@@H]1[C@H](O)CC[C@]2(CO2)[C@@]1(O)[C@@]1(C)O[C@@H]1CC=C(C)C` [FOS-34, (3S,4R,5R,6R)-4-[(1′S,2′S)-1′,2′-Epoxy-1′,5′-dimethyl-4′-hexenyl]-5-methoxy-1-oxaspiror[2.5]octane-4,6-diol] gave an IC50 [1, 10] of 2.2 ± 1.4 nM and an IC50 (recombinant human MetAP2 [2]; [11]) of 4 ± 1 nM.
For `CO[C@@H]1[C@H](OC(=O)CCCCl)CC[C@]2(CO2)[C@@]1(O)[C@@]1(C)O[C@@H]1CC=C(C)C` [FOS-69, (3S,4R,5R,6R)-4-[(1′S,2′S)-1′,2′-Epoxy-1′5′-dimethyl-4′-hexenyl]-5-methoxy-6-O(4″chlorobutyryl)-1-oxaspiror[2.5]octane-4,6-diol], the IC50 [1, 8] was 0.31 ± 0.066 nM and the IC50 (recombinant human MetAP2 [2]; [11]) was 0.1 ± 0.03 nM.
With `CO[C@@H]1[C@H](OC(=O)NCCNC(=O)CCc2ccc(O)cc2)CC[C@]2(CO2)[C@@]1(O)C1(C)O[C@@H]1CC=C(C)C` (some centres unmarked) [photoaffinity label mimic] the “activity in the BAEC proliferation assay” value [1] was “retained significant, albeit decreased, activity”.
`CO[C@@H]1[C@H](OC(=O)NC(=O)CCl)CC[C@]2(CO2)[C@@]1(O)[C@@]1(C)O[C@@H]1CC=C(C)C` [FOS-68, (3S,4R,5R,6R)-4-[(1′S,2′S)-1′,2′-Epoxy-1′,5′-dimethyl-4′-hexenyl]-5-methoxy-6-O(N-chloro-acetyl)carbamoyl-1-oxaspiror[2.5]octane-4,6-diol] showed an IC50 [1, 8] of 0.46 ± 0.26 nM and an IC50 (recombinant human MetAP2 [2]; [9]) of 2 ± 0.8 nM.
With `CO[C@@H]1C(=O)CC[C@]2(CO2)[C@@]1(O)[C@@]1(C)O[C@@H]1CC=C(C)C` [Ovalicin] the “growth of wild type yeast” value [3] was “resistant”, the “growth of the map1 mutant” value [4] was “completely inhibited” and the “inhibition of MetAP activity of the type 1 enzyme” value (recombinant yeast MetAP1) was “No inhibition”. The “inhibition of the yeast MetAP2 enzyme” value (recombinant yeast MetAP2) was “completely inhibited”.
Molecule `CO[C@@H]1[C@H](OC(=O)NC(=O)CCl)CC[C@]2(CO2)[C@H]1[C@@]1(C)O[C@@H]1CC=C(C)C` [AGM-1470] has an IC50 [1, 8] of 0.037 ± 0.0024 nM, an IC50 (recombinant human MetAP2 [2]; IC50, methionine aminopeptidase activity of MetAP2, estimated, 1 nM of recombinant human MetAP2 used in the assay) of about 1 nM and an IC50 (recombinant human MetAP2 [2]; [11]) of 1 ± 0.3 nM. The “MetAP2 bound by drug: inhibiting phosphorylation of eIF-2α by HRI” value (recombinant human MetAP2 [5]) was “as effective as unbound MetAP2”, the “growth of wild type yeast” value [3] was “resistant” and the “growth of the map1 mutant” value [4] was “completely inhibited”. For the same molecule, the “growth of map2 mutant yeast” value [6] was “resistant”, the “inhibition of MetAP activity of the type 1 enzyme” value (recombinant yeast MetAP1) was “No inhibition” and the “inhibition of the yeast MetAP2 enzyme” value (recombinant yeast MetAP2) was “completely inhibited”. For the same molecule, the “effect on p67 labeling by ovalicin photoaffinity probe” value (67 kD (p67)) was “abrogated p67 labeling”, the “mode of binding to MetAP2” value (recombinant human MetAP2 [7]) was “bound to MetAP2 covalently” and the “competition of band reacting with anti-human MetAP2 antibodies” value (p67 (MetAP2); Western blot of protein retained by biotin-fumagillin and biotin-ovalicin conjugates) was “elimination of the cross-reacting band”. The “p67 retention by biotin-ovalicin conjugate on immobilized streptavidin” value (p67 (MetAP2); mouse embryo extract, 50 μM competitor) was “sensitive” and the “competition of p67 binding by biotin-fumagillin” value (p67 (MetAP2); mouse embryo extract, 50 μM competitor, silver stain) was “competed”.
Work on `COC1C(OC(=O)NC(=O)CCl)CCC(O)(CSC)C1(O)C1(C)OC1CC=C(C)C` [FOS-67, (1R,2S,3R,4R)-1-Methylthiomethylene-2-[(1′S,2′S)-1′,2′-epoxy-1′,5′-dimethyl-4′-hexenyl]-3-methoxy-4-O-(N-chloroacetyl)carbamoyl-cyclohexane-1,2,4-triol] yielded an IC50 [1, 8] of 40 ± 4 nM and an IC50 (recombinant human MetAP2 [2]; [9]) of 400 ± 200 nM.
Work on `CO[C@@H]1C(=O)CC[C@]2(CO2)[C@H]1[C@@]1(C)O[C@@H]1CC=C(C)C` [FOS-72, (3R,4S,5S)-4-[(1′R,2′S)-1′,2′-Epoxy-1′,5′-dimethyl-4′-hexenyl]-5-methoxy-1-oxaspiror[2.5]octan-6-one] yielded an IC50 [1, 10] of 0.013 ± 0.0015 nM and an IC50 (recombinant human MetAP2 [2]; [9]) of 6 ± 2 nM.
